For data set [1] the following is noted: cited from earlier work.
In data set [2] the test system is V600E+ (BRAF mutated) SM1 tumor. As to the kind of experiment: SM1 tumor model, in vivo tumor growth curve over 21 days. Also noted: species or system C57BL/6 mice. The text has this: In this study 6-8 week old female C57BL/6 mice were inoculated with SM1 tumor fragments (TME* components present).

With `CCCC[C@@H](NC(=O)[C@@H](Cc1cn(C(=O)OC)c2ccccc12)NC(=O)[C@H](CC(C)(C)C)NC(=O)N1[C@H](C)CCC[C@@H]1C)C(=O)O` [BQ788, (2R)-2-[[(2R)-2-[[(2S)-2-[[(2R,6S)-2,6-dimethylpiperidine-1-carbonyl]amino]-4,4-dimethylpentanoyl]amino]-3-(1-methoxycarbonylindol-3-yl)propanoyl]amino]hexanoic acid], the degradation in plasma result in data set [1] is given as “rapidly degraded in plasma”. Turning to `CC(C)(C)c1nc(-c2cccc(NS(=O)(=O)c3c(F)cccc3F)c2F)c(-c2ccnc(N)n2)s1` [dabrafenib], the “tumor growth (FIG. 3), standard combination” value in data set [2] (dabrafenib 30 mg/kg daily by oral gavage + immune checkpoint inhibitors 10 mg/kg Q4D IP, 21 days) is given as “failed to shrink tumors but demonstrated intermediate tumor growth inhibition”. For the same compound, the “efficacy on addition to anti-PD1/ETBR antagonist combination” value in data set [2] (three-part combination therapy) was “impairs efficacy”.

(Values after patent US20210077562A1, “ETBR ANTAGONIST COMPOUNDS, COMPOSITIONS, AND USES” (ENB Therapeutics, Inc., priority 2018, published 2021).)
